Entries after “also recorded” stand apart in the source; their conditions may differ. Like-named read-outs stand apart in the source and are kept apart here.
Assays:
POMC neurons = assay: Electrophysiological activity of POMC neurons in brain slices from POMC-EGFP mice; type: cell-based
Description: (§1) The electrophysiological activity of Proopiomelanocortin (POMC) neurons in brain slices from POMC-EGFP mice are recorded. The POMC neurons in these mice are identified by the expression of green fluorescent protein (EGFP) in these, and only these, cells. The frequency of action potentials in these neurons are recorded using standard electrophysiological techniques. In particular loose cell attached patch configuration is used to determine action potential frequency, whilst minimally disturbing the cells.
as §1, with “particular,” for “particular”

mice = assay: Food intake in mice (acute, after fast / intra-peritoneal injection); type: in vivo; settings: for food intake: other preclinical experiments, each compound alone
[1] = Case study Example 13: zonisamide, paroxetine and risperidone; type: in vivo, human
Description: They were therefore started on zonisamide 100 mg, incraesed to 200 mg. […] The dose was then increased to 300 mg and then to 600 mg.

[2] = Rat-weight gain assay: rodent model of mirtazapine-induced weight gain; type: in vivo, rats; settings: addition to concomitant mirtazapine treatment; doses tbd
Description: We have developed a model to pre-clinically test the effects of mirtazapine on body weight gain. […] Initially, a dose of 30 mg/kg of zonisamide (bid) is used, but the dose in the experiment ranges from 20 mg/kg to 90 mg/kg (bid). […] Mirtazapine or setiptiline are used as solutions in minipumps. The concentration of the solution ranges between 0.1 μM to 10 mM. In some experiments, the concentration is calculated to provide a dose of about 1 mg/kg/day. In certain experiments, the concentration is 10 μM.
In a 4×3 design rats receive implants that secrete mirtazapine, or setiptiline, or vehicle. Some rats also receive co-treatment with saline, some receive zonisamide, some receive bupropion, and others receive co-treatment with zonisamide plus bupropion. In this way cohorts of 10 rats receive all possible combinations of the weight loss drug(s) with mirtazapine or setiptiline.
Female Sprague-Dawley rats weighing about 300 grams at the start of the experiment are used. Under isoflurane anesthesia, Alzet osmotic minipumps (2 ml2) are implanted subcutaneously between the shoulder blades. The rats are returned to their home cages after recovery. The minipumps deliver 5 μL per hour for 14 days. A range of doses of mirtazapine (from 0.1 to 20 mg/kg/day dissolved in DMSO/saline) are used. […] Food consumed and animal weights are recorded every 3 days, to minimize disruption of the animals.

[3] = Case study Example 14: zonisamide, olanzapine, valproate and bupropion; type: in vivo, human; settings: for effect on weight gain resulting from olanzapine and valproate: summary of the case
Description: At this point, zonisamide was added to their medication regimen at 100 mg/day and the dose was increased to 200 mg/day after two weeks.

[4] = test system: serotonin and dopamine synthesis; settings: cited from earlier work
dopamine D2 receptors = dopamine D2 receptors (Homo sapiens, UniProt P14416); settings: cited from earlier work
[5] = Rodent model of olanzapine-induced weight gain; type: in vivo, rats; settings: addition to concomitant olanzapine treatment (about 1.75 mg/kg/day); doses tbd
Description: Rats receive implants that secrete olanzapine (or vehicle in control groups). Some also receive co-treatment with zonisamide; others get co-treatment with zonisamide plus bupropion. Initially, a dose of 30 mg/kg of zonisamide (bid) is used, but the dose in the experiment ranges from 20 mg/kg to 90 mg/kg (bid). […] Olanzapine is used as a solution in minipumps. The concentration of the solution ranges between 0.1 μM to 10 mM. In some experiments, the concentration is calculated to provide a dose of about 1.75 mg/kg/day. In certain experiments, the concentration is 10 μM.
Female Sprague-Dawley rats weighing about 300 grams at the start of the experiment are used. Under isoflurane anesthesia, Alzet osmotic minipumps (2 ml2) are implanted subcutaneously, between the shoulder blades. The rats are returned to their home cages after recovery. The minipumps deliver 5 μL per hour for 14 days. Olanzapine is dissolved in dH2O+10% dilute lactic acid. A pH of about 3.5 enables the olanzapine to dissolve completely and produce a golden solution. This pH level has no effect on the animals in either the drug groups or the vehicle group. The animals are housed individually and are supplied with standard laboratory chow. Food consumed and animal weights are recorded every 3 days, to minimize disruption of the animals.

[6] = Case study Example 12: zonisamide added to clonazepam, fluoxetine and lamotrogine; type: in vivo, human; settings: person, bipolar disorder; zonisamide 100 mg qD added to clonazepam, fluoxetine, lamotrogine
Description: A person having biopolar disorder, Type I, had been treated for just over year by their psychiatrist using clonazepam 1 mg qHS, fluoxetine 20 mg qd, and lamotrogine 300 mg qD. One particular complaint was that they had “constant thoughts of eating”. Their psychiatrist started them on zonisamide 100 mg qD. […] The dose was continued and despite multiple stressors at home, they continued to do well on the treatment regimen.

[7] = cited from earlier work

Sequence of dopamine D2 receptors (P14416 whole entry): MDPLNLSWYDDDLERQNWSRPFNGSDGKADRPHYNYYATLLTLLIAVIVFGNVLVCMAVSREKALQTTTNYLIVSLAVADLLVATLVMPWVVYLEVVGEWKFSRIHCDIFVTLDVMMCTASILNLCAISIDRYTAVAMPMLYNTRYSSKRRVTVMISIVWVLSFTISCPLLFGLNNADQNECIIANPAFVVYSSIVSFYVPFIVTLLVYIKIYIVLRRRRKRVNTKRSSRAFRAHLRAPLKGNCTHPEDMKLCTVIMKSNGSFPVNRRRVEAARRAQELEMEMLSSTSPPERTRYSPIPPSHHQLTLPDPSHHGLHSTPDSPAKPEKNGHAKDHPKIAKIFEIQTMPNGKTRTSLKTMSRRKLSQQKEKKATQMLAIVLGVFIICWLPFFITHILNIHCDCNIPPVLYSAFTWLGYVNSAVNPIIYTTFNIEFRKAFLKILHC

CC(NC(C)(C)C)C(=O)c1cccc(Cl)c1 (stereo not shown) [bupropion]
electrophysiological activity of POMC neurons (POMC neurons): increase the electrophysiological activity of POMC neurons
food intake after intra-peritoneal injection (mice; mice): pronounced effects on food intake
food intake (mice): inhibit food intake
weight loss ([1]; trial of bupropion alone, patient on paroxetine and risperidone): did not cause significant weight loss
weight gain associated with mirtazapine [2]: decreases the weight gain associated with mirtazapine
weight lost ([3]; after 6 months, bupropion 150 mg/day added to olanzapine and valproate): 23.6 lbs
adverse effect reported ([3]; bupropion dose raised to 300 mg/day): feeling hyperactive
adverse effect limiting higher dose ([3]; higher dose (300-400 mg/day) of bupropion): precipitation of hypomanic symptoms
weight regained ([3]; over the next 10 months while continuing bupropion): 10.6 lbs
effect on weight gain resulting from olanzapine and valproate [3]: helped in decreasing weight gain

NS(=O)(=O)Cc1noc2ccccc12 [zonisamide]
serotonin and dopamine synthesis rates [4]: increases serotonin and dopamine synthesis rates
electrophysiological activity of POMC neurons (POMC neurons): increase the electrophysiological activity of POMC neurons
food intake after intra-peritoneal injection (mice; mice): pronounced effects on food intake
food intake over 24 hrs after intra-peritoneal injection (mice; mice): pronounced effects on food intake
food intake (mice): inhibit food intake
weight lost ([1]; in 3 weeks, zonisamide 100 mg increased to 200 mg): 12 pounds
weight relative to baseline ([1]; in 5 months, zonisamide increased to 300 mg and then 600 mg): their weight returned to baseline
stimulation of dopamine D2 receptors (dopamine D2 receptors): stimulates dopamine D2 receptors
weight gain associated with olanzapine [5]: decrease the weight gain associated with olanzapine
craving for food [6]: significantly reduced their craving for food
weight gain [6]: prevented weight gain
weight gain associated with mirtazapine [2]: decreases the weight gain associated with mirtazapine
weight reducing effects in humans ([7]; Gadde et al, 2003, 2001): well demonstrated in humans
tolerability / side effects ([7]; compared with placebo treatment, Gadde et al, JAMA 2003): well tolerated; also recorded: fatigue being the only side effect that occurred more frequently than with placebo treatment
weight loss ([7]; patients presenting with primary obesity, Gadde et al, JAMA 2003): significant weight loss
weight lost ([3]; over the next 4 months, zonisamide 100 then 200 mg/day added to bupropion, olanzapine, valproate): 15 lbs
effect on weight gain resulting from olanzapine and valproate [3]: helped in further offsetting weight gain
adverse effects ([3]; zonisamide 100 then 200 mg/day added to bupropion, olanzapine, valproate): no adverse effects

— patent US7429580B2, “Compositions of an anticonvulsant and an antipsychotic drug and methods of using the same for affecting weight loss” (Orexigen Therapeutics, Inc., priority 2004, dated 2008)
